Six compounds from patent US6762198B2, “Dihetero-substituted metalloprotease inhibitors” (The Procter & Gamble Company, priority 1999, dated 2004) can be followed below.

For one assay, the system named is asthma sufferer. The assay is described as follows: Example E: inhalation aerosol in an asthma sufferer. The class given is in vivo, human. The settings on record: 0.01 mL of 5.0% w/v inhalation aerosol sprayed into the mouth while inhaling.
Assay [1] relates to human subject suffering from osteoarthritis. The assay is described as follows: Example B: oral capsule in a human subject with osteoarthritis. The class given is in vivo. The settings on record: human 90 kg, capsule containing 70 mg daily for 5 years. The procedure:
A capsule for oral administration, according to the present invention, is made comprising:
A human subject weighing 90 kg (198 lbs.), suffering from osteoarthritis, is treated by a method of this invention. Specifically, for 5 years, a capsule containing 70 mg of the compound of Example 3 is administered daily to said subject.

The subject of assay [2] is human subject suffering from rheumatoid arthritis. The assay is described as follows: Example A: oral tablets in a human subject with rheumatoid arthritis. The class given is in vivo. The settings on record: human 60 kg, three tablets (15 mg compound each) per day orally for 2 years. The procedure:
A tablet composition for oral administration, according to the present invention, is made comprising:
A human subject weighing 60 kg (132 lbs), suffering from rheumatoid arthritis, is treated by a method of this invention. Specifically, for 2 years, a regimen of three tablets per day is administered orally to said subject.

Assay [3] has as its system patient having deep corneal abrasion. The assay is described as follows: Example C: saline-based eye drop in a patient with deep corneal abrasion. The assay is classed as in vivo, human. The settings on record: 5% w/w saline-based drop to each eye twice a day. The text has this: A saline-based composition for local administration, according to the present invention, is made comprising:
A patient having deep corneal abrasion applies the drop to each eye twice a day.

Assay [4] concerns patient suffering from chemical bums. The assay is described as follows: Example D: topical composition in a patient with chemical burns. The assay is classed as in vivo, human. The settings on record: 0.20% w/v topical composition at each dressing change (b.i.d.). The text has this:
A topical composition for local administration, according to the present invention, is made comprising:
A patient suffering from chemical bums applies the composition at each dressing change (b.i.d.).

The test system of assay [5] is human subject with a premetastatic tumor. The assay is described as follows: Example G: parenteral suspension in a human subject with a premetastatic tumor. The class given is in vivo. The settings on record: about 2.0 mL of 100 mg/mL suspension injected beside the tumor twice daily, after 30 days. As to the method: A composition for parenteral administration is made comprising:
The above ingredients are mixed, forming a suspension. Approximately 2.0 mL of the suspension is administered, via injection, to a human subject with a premetastatic tumor. The injection site juxtaposes the tumor. This dosage is repeated twice daily, for approximately 30 days.

Regarding `COc1ccc(-c2ccc(S(=O)(=O)NC(CC(O)CSc3n[nH]c(-c4ccccc4)n3)C(=O)O)cc2)cc1` (stereo not drawn) [Example 42, 2-[(4′-Methoxy[1,1′-biphenyl]-4-yl)sulfonyl]amino-4-hydroxy-5-[(5-phenyl-1H-1,2,4-triazol-3-yl)thio]-pentanoic Acid], in the assay on asthma sufferer, the asthma symptoms entry was “Asthma symptoms are diminished”. Consider `O=C(O)C(CC(O)CSc1nccs1)NS(=O)(=O)c1ccc(-c2ccc(Oc3ccccc3)cc2)cc1` (stereo not drawn) [Example 3, 2-[(4′-Phenoxy[1,1′-biphenyl]-4-yl)sulfonyl]amino-4-hydroxy-5-[(2-thiazolyl)thio]pentanoic Acid], for which the “advancement of erosion/fibrillation of the articular cartilage (x-ray, arthroscopy and/or MRI)” value in assay [1] is on record as “no further advancement of erosion/fibrillation of the articular cartilage”. On to `COc1ccc(-c2ccc(S(=O)(=O)NC(CC(O)CSc3nccs3)C(=O)O)cc2)cc1` (stereo not drawn) [Example 1, 2-[(4′-Methoxy[1,1′-biphenyl]-4-yl)sulfonyl]amino-4-hydroxy-5-[(2-thiazolyl)thio]-pentanoic Acid], for which, in assay [2], the “inflammation, mobility and pain at the end of the treatment period” value is “reduced inflammation, and improved mobility without concomitant pain”.

Take `Cc1ccc(C#Cc2ccc(S(=O)(=O)NC(CC(O)CSc3nccs3)C(=O)O)cc2)cc1` (stereo not drawn) [Example 10, 2-[[4-[(4-Methylphenyl)ethynyl]phenyl]sulfonyl]amino-4-hydroxy-5-[(2-thiazolyl)thio]-pentanoic Acid]: the corneal healing entry in assay [3] is “Healing is speeded, with no visual sequelae”. On to `COc1ccc(-c2ccc(S(=O)(=O)NC(CC(O)CNc3ccccc3)C(=O)O)cc2)cc1` (stereo not drawn) [Example 19, 2-[(4′-Methoxy[1,1′-biphenyl]-4-yl)sulfonyl]amino-4-hydroxy-5-(phenylamino)-pentanoic Acid], for which, in assay [4], the scarring entry was “Scarring is substantially diminished”. In the case of `COc1ccc(-c2ccc(S(=O)(=O)NC(CC(O)CSc3ncc[nH]3)C(=O)O)cc2)cc1` (stereo not drawn) [Example 22, 2-[(4′-Methoxy[1,1′-biphenyl]-4-yl)sulfonyl]amino-4-hydroxy-5[(2-imidazolyl)thio]-pentanoic Acid], the “symptoms of the disease” value in assay [5] was “symptoms of the disease subside”.
